Counter-ions that a name gives are not always drawn.
System: body temperature
Test: Hypothermia Test (effect on body temperature)
Type: in vivo, CF-1 male mice
Settings: for active in either the hypothermic or the apomorphine antogonism test: either test: hypothermic or apomorphine antagonism
Experimental: The Effect on Body Temperature (Hypothermia) Test and the Antagonism of Apomorphone-Induced Case Climbing (ACC), (Apomorphine Gnawing Test) are described on page 1398 of the publication, Journal of Medicinal Chemistry, Vol. 22, No. 11, pp. 1390-1398, in an article entitled "6-Aryl-4H-s-triazolo[4,3-a][1,4]benzodiazepines....Action" by J. B. Hester, Jr., et al.
For the tests here, the Hypothermia Test procedure was run as follows:
A group of four CF-1 male mice (18-22 g each) was injected intraperitoneally with the test compound prepared in 0.25 percent w/v methylcellulose in water solution. After 45 min, abdominal temperature of each mouse was measured using a thermister probe. A control group of four mice was treated with vehicle only and the temperature of the control group was taken in a similar manner. A compound was considered to have a significant effect on body temperature if the mean temperature in the test compound treated group deviated more than 3.5°C from the mean temperature of the parallel control group. Stimulants tend to elevate temperatures; depressants tend to lower body temperature.

Molecule | active in either the hypothermic or the apomorphine antogonism test | ED50 (Mus musculus, ip, 0.75 h, read-out: hypothermia, calculated ED50)
CCCNC1Cc2cccc3cccc(c23)C1 [(56), N-n-propyl-2,3-dihydro-lH-phenalen-2-amine hydrochloride] | active | –
CCN(CC)C1Cc2cccc3cccc(c23)C1 [(55), N,N-diethyl-2,3-dihydro-lH-phenalen-2-amine hydrochloride, 0.25 H2O hydrate] | active | –
CNC1Cc2cccc3c(OCc4ccccc4)ccc(c23)C1 (stereo not drawn) [(21), [2-(N-methylamino)-2,3-dihydro-lH-phenalen-6-yl]benzyl ether, p-toluene sulfonate salt] | active | –
CCCN(CCC)C1Cc2cccc3cc(O)cc(c23)C1 (single isomer, unassigned; (-)) [(34), (-)-2-(N,N-di-n-propylamino)-2,3-dihydro-lH-phenalen-5-ol hydrobromide] | active | –
COc1ccc2cccc3c2c1CC(N(C)C)C3 (stereo not drawn) [(35), N,N-dimethyl-4-methoxy-2 ,3-dihydro-lH-phenalen-2-ylamine hydrochloride] | active | –
CCCN(CCC)C1Cc2cccc3ccc(O)c(c23)C1 (stereo not drawn) [(28), 2-(N,N-di-n-propylamino)-2,3-dihydro-1H-phenalen-4-ol hydrobromide] | active | –
5-[2-(N,N-dimethylamino)-2,3-dihydro-1H-phenalen-2-yl]azetidine hydrochloride [(13)] | active | –
CCCCCCC(=O)Oc1cc2c3c(cccc3c1)CC(N(CCC)CCC)C2 (stereo not drawn) [(46), [2-(N,N-di-n-propylamino)-2,3-dihydro-1H-phenalen-5-yl]heptanoate ester hydrochloride] | active | –
CNC1Cc2cccc3c(C(C)=O)ccc(c23)C1 (stereo not drawn) [(14), N-methyl-6-acetyl-2,3-dihydro-lH-phenalen-2-amine hydrochloride] | active | –
CNC1Cc2cccc3c(C(=O)c4ccccc4)ccc(c23)C1 (stereo not drawn) [(20), [2-(N-methylamino)-2,3-dihydro-lH-phenalen-6-yl]phenone methanesulfonate salt] | active | –
Brc1ccc2c3c(cccc13)CC(N1CCCC1)C2 (stereo not drawn) [(26), 1-[6-bromo-2,3-dihydro-lH-phenalen-2-yl]pyrrolidine] | active | –
1-[2-(N,N-dimethylamino)-2,3-dihydro-1H-phenalen-y-yl]-ethan-1-ol hydrochloride [(10)] | active | –
6-chloro-N,N-dimethyl-2,3-dihydro-lH-phenalen-2-amine hydrochloride [(52)] | active | –
COc1ccc2cccc3c2c1CC(N)C3 (stereo not drawn) [(24), 4-methoxy-2,3-dihydro-lH-phenalen-2-amine] | active | –
CN(C)C1Cc2cccc3c(C(=O)c4ccccc4)ccc(c23)C1 (stereo not drawn) [(19), [2-(N,N-dimethylamino)-2,3-dihydro-1H-phenalen-6-yl]phenone maleate salt] | active | –
CN(C)C1Cc2cccc3cccc(c23)C1 [(7), N,N-dimethyl-2,3-dihydro-lH-phenalen-2-amine hydrochloride] | active | –
6-chloro-N,N-di-n-propyl-2,3-dihydro-lH-phenalen-2-ylamine hydrochloride [(51)] | active | –
N-methyl-6-(2-methyl-l,3-dioxan-2-yl)-2,3-dihydro-lH-phena- len-2-amine maleate salt [(6)] | active | –
CNC1Cc2cccc3c(OCc4ccccc4)ccc(c23)C1 (stereo not drawn) [(41), [2-(N-methylamino)-2,3-dihydro-1H-phenalen-6-yi]-α-benzyl-ether p-toluenesulfonate salt monohydrate] | active | –
CN(C)C1Cc2cccc3c(C(=O)c4ccccc4)ccc(c23)C1 (stereo not drawn) [(39), [2-(N,N-dimethylamina-2,3-dihydro-1H-phenalen-6-yl]phenone maleate salt, hydrochloride] | active | –
CN(C)C1Cc2cccc3c(OCc4ccccc4)ccc(c23)C1 (stereo not drawn) [(22), [2-(N,N-dimethylamino)-2,3-dihydro-1H-phenalen-6-yl]benzyl ether hydrochloride] | active | –
Cl.NC1Cc2cccc3cc(Cl)cc(c23)C1 (stereo not drawn) [(50), 5-chloro-2,3-dihydro-1H-phenalen-2-ylamine hydrochloride] | active | –

Molecule | active in either the hypothermic or the apomorphine antogonism test | ED50 (Mus musculus, ip, 0.75 h, read-out: hypothermia, calculated ED50)
CCCN(CCC)C1Cc2cccc3cc(O)cc(c23)C1.Cl (racemic) [(16), (±)2-(N,N-di-n-propylamino)-2,3-dihydro-1H-phenalen-5-ol hydrochloride] | active | –
N,N-dimethyl-6-(2-methyl-l,3-dioxan-2-yl)-2,3-dihydro-lH- phenalen-2-amine [(8)] | active | –
N-methyl-6-(2-methyl-l,3-dioxan-2-yl)-2,3-dihydro-lH-phena- len-2-amine [(5)] | active | –
CN(C)C1Cc2cccc3c(Br)ccc(c23)C1 (stereo not drawn) [(2), 6-Bromo-N,N-dimethyl-2,3-dihydro-lH-phenalen-2-amine hydrochloride] | active | –
CN(C)C1Cc2cccc3ccc(O)c(c23)C1 (stereo not drawn) [(36), 2-(N,N-dimethylamino)-2,3-dihydro-lH-phenalen-4-ol hydrobromide] | active | –
CCCN(CCC)C1Cc2cccc3cc(OC(C)=O)cc(c23)C1 (stereo not drawn) [(37), [2-(N,N-di-n-propylamino)-2,3-dihydro-lH-phenalen-5-yl]acetate ester] | active | –
CCCN(CCC)C1Cc2cccc3cc(O)cc(c23)C1 (racemic) [(15), (±)2-(N,N-di-n-propylamino)-2,3-dihydro-lH-phenalen-5-ol] | active | 1 mg/kg
CCNC1Cc2cccc3cccc(c23)C1 [(57), N-ethyl-2,3-dihydro-lH-phenalen-2-amine hydrochloride] | active | –
CCCN(CCC)C1Cc2cccc3cc(OC(=O)C(C)(C)C)cc(c23)C1 (stereo not drawn) [(44), 2-(N,N-di-n-propylamino)-2,3-dihydro-lH-phenalen-5-ol, 2,2-dimethylpropyl ester hydrochloride] | active | –
CCCN(CCC)C1Cc2cccc3cccc(c23)C1 [(53), N,N-di-n-propyl-2,3-dihydro-lH-phenalen-2-amine hydrochloride] | active | –
CN(C)C1Cc2cccc3c(O)ccc(c23)C1 (stereo not drawn) [(3), 2-(N,N-dimethylamino-2,3-dihydro-lH-phenalen-6-ol hydrochloride] | active | –
CCCN(CCC)C1Cc2cccc3c(Br)ccc(c23)C1 (stereo not drawn) [(4)] | active | –
CCCN(CCC)C1Cc2cccc3cc(OC(=O)c4ccccc4)cc(c23)C1 (stereo not drawn) [(45), [2-(N,N-di-n-propylamino)-2,3-dihydro-lH-phenalen-5-yl]benzoate ester hydrochloride] | active | –
c1cc2c3c(cccc3c1)CC(N1CCC1)C2 [(54), 1-[2,3-dihydro-IH-phenalen-2-yl]azetidine succinate salt] | active | –
CCCN(CCC)C1Cc2cccc3c(O)ccc(c23)C1 (stereo not drawn) [(9), 2-(N,N-di-n-propylamino)-2,3-dihydro-lH-phenalen-6-ol hydrochloride] | active | –
COc1ccc2cccc3c2c1CC(N(C)C)C3 (stereo not drawn) [(31), N,N-dimethyl-4-methoxy-2,3-dihydro-lH-phenalen-2-ylamine maleate salt] | active | –
CCCN(CCC)C1Cc2cccc3cc(OC(=O)OCC)cc(c23)C1 (stereo not drawn) [(47), [2-(N,N-di-n-propylamino)-2,3-dihydro-lH-phenalen-5-yl]-ethyl carbonate (ester)] | active | –
NC1Cc2cccc3c(Br)ccc(c23)C1 (stereo not drawn) [(27), 6-bromo-2,3-dihydro-lH-phenalen-2-ylamine hydrochloride] | active | –
CCCN(CCC)C1Cc2cccc3cc(OC(=O)Cc4ccccc4)cc(c23)C1 (stereo not drawn) [(48), [2-(N,N-di-n-propylamino)-2,3-dihydro-1H-phenalen-5-yl]-α-phenylacetate ester hydrochloride, 0.5 H2O hydrate] | active | –
CN(C)C1(N2CCC2)Cc2cccc3cccc(c23)C1 [(11), 1-[2-(N,N-dimethylamino)-2,3-dihydro-1H-phenalen-2-yl]azetidine] | active | –
[2-amino-2,3-dihydro-lH-phenalen-6-yl]-a-benzyl ether maleate salt [(49)] | active | –
Brc1ccc2c3c(cccc13)CC(N1CCCCC1)C2 (stereo not drawn) [(29), 1-[6-bromo-2,3-dihydro-1H-phenalen-2-yl]piperadine] | active | –

Reference: patent EP0234113A1, “2,3-Dihydro-1H-phenalene-2-amino compounds as anti-psychotic drugs” (THE UPJOHN COMPANY, priority 1985, dated 1987)
